Reference: ChEMBL document CHEMBL2440076, “New triarylpyrazoles as broad-spectrum anticancer agents: design, synthesis, and biological evaluation” (Eur J Med Chem, 2013)

How the values were obtained:
Format in all cases: functional
[1] = system: ACHN; test: Growth inhibition of human ACHN cells assessed as cell growth at 10^-8 M after 48 hrs by sulforhodamine B assay; details: read-out: Activity
[2] = system: OVCAR-8; test: Growth inhibition of human OVCAR8 cells assessed as cell growth at 10^-6 M after 48 hrs by sulforhodamine B assay; details: OVCAR-8, 48 h, read-out: Activity
[3] = system: SN12C; test: Growth inhibition of human SN12C cells assessed as cell growth at 10^-4 M after 48 hrs by sulforhodamine B assay; details: read-out: Activity
[4] = system: MDA-MB-435; test: Growth inhibition of human MDA-MB-435 cells assessed as cell growth at 10^-4 M after 48 hrs by sulforhodamine B assay; details: MDA-MB-435, 48 h, read-out: Activity
[5] = system: KM12; test: Growth inhibition of human KM12 cells assessed as cell growth at 10^-8 M after 48 hrs by sulforhodamine B assay; details: KM12, 48 h, read-out: Activity
[6] = system: PC-3; test: Growth inhibition of human PC3 cells assessed as cell growth at 10^-4 M after 48 hrs by sulforhodamine B assay; details: PC-3, 48 h, read-out: Activity
[7] = system: K562; test: Growth inhibition of human K562 cells assessed as cell growth at 10^-6 M after 48 hrs by sulforhodamine B assay; details: K562, 48 h, read-out: Activity
[8] = system: COLO 205; test: Growth inhibition of human COLO205 cells assessed as cell growth at 10^-4 M after 48 hrs by sulforhodamine B assay; details: COLO 205, 48 h, read-out: Activity
[9] = system: NCI-H522; test: Growth inhibition of human NCI-H522 cells assessed as cell growth at 10^-5 M after 48 hrs by sulforhodamine B assay; details: NCI-H522, 48 h, read-out: Activity
[10] = system: UACC-257; test: Growth inhibition of human UACC257 cells assessed as cell growth at 10^-6 M after 48 hrs by sulforhodamine B assay; details: UACC-257, 48 h, read-out: Activity
[11] = system: PC-3; test: Growth inhibition of human PC3 cells assessed as cell growth at 10^-5 M after 48 hrs by sulforhodamine B assay; details: PC-3, 48 h, read-out: Activity
[12] = system: A498; test: Growth inhibition of human A498 cells assessed as cell growth at 10^-6 M after 48 hrs by sulforhodamine B assay; details: A498, 48 h, read-out: Activity
[13] = system: CCRF-CEM; test: Growth inhibition of human CCRF-CEM cells assessed as cell growth at 10^-4 M after 48 hrs by sulforhodamine B assay; details: read-out: Activity
[14] = system: NCI-H322M; test: Growth inhibition of human NCI-H322M cells assessed as cell growth at 10^-4 M after 48 hrs by sulforhodamine B assay; details: read-out: Activity
[15] = system: HCT-116; test: Growth inhibition of human HCT116 cells assessed as cell growth at 10^-6 M after 48 hrs by sulforhodamine B assay; details: HCT-116, 48 h, read-out: Activity
[16] = system: U-251; test: Growth inhibition of human U251 cells assessed as cell growth at 10^-6 M after 48 hrs by sulforhodamine B assay; details: U-251, 48 h, read-out: Activity
[17] = system: NCI-H23; test: Growth inhibition of human NCI-H23 cells assessed as cell growth at 10^-6 M after 48 hrs by sulforhodamine B assay; details: NCI-H23, 48 h, read-out: Activity
[18] = system: MDA-MB-435; test: Growth inhibition of human MDA-MB-435 cells assessed as cell growth at 10^-7 M after 48 hrs by sulforhodamine B assay; details: MDA-MB-435, 48 h, read-out: Activity
[19] = system: T47D; test: Growth inhibition of human T47D cells assessed as cell growth at 10^-6 M after 48 hrs by sulforhodamine B assay; details: read-out: Activity
[20] = system: SNB-75; test: Growth inhibition of human SNB75 cells assessed as cell growth at 10^-8 M after 48 hrs by sulforhodamine B assay; details: SNB-75, 48 h, read-out: Activity
[21] = system: UACC-62; test: Growth inhibition of human UACC62 cells assessed as cell growth at 10^-8 M after 48 hrs by sulforhodamine B assay; details: UACC-62, 48 h, read-out: Activity
[22] = system: TK-10; test: Growth inhibition of human TK10 cells assessed as cell growth at 10^-8 M after 48 hrs by sulforhodamine B assay; details: TK-10, 48 h, read-out: Activity
[23] = system: SF-268; test: Growth inhibition of human SF268 cells assessed as cell growth at 10^-8 M after 48 hrs by sulforhodamine B assay; details: SF-268, 48 h, read-out: Activity
[24] = system: CAKI-1; test: Growth inhibition of human CAKI-1 cells assessed as cell growth at 10^-6 M after 48 hrs by sulforhodamine B assay; details: CAKI-1, 48 h, read-out: Activity
[25] = system: OVCAR-5; test: Growth inhibition of human OVCAR5 cells assessed as cell growth at 10^-7 M after 48 hrs by sulforhodamine B assay; details: OVCAR-5, 48 h, read-out: Activity
[26] = system: OVCAR-5; test: Growth inhibition of human OVCAR5 cells assessed as cell growth at 10^-8 M after 48 hrs by sulforhodamine B assay; details: OVCAR-5, 48 h, read-out: Activity
[27] = system: SK-OV-3; test: Growth inhibition of human SKOV3 cells assessed as cell growth at 10^-7 M after 48 hrs by sulforhodamine B assay; details: SK-OV-3, 48 h, read-out: Activity
[28] = system: T47D; test: Growth inhibition of human T47D cells assessed as cell growth at 10^-7 M after 48 hrs by sulforhodamine B assay; details: read-out: Activity
[29] = system: HCT-15; test: Growth inhibition of human HCT15 cells assessed as cell growth at 10^-6 M after 48 hrs by sulforhodamine B assay; details: HCT-15, 48 h, read-out: Activity
[30] = system: NCI-H322M; test: Growth inhibition of human NCI-H322M cells assessed as cell growth at 10^-7 M after 48 hrs by sulforhodamine B assay; details: read-out: Activity
[31] = system: IGROV-1; test: Growth inhibition of human IGROV1 cells assessed as cell growth at 10^-4 M after 48 hrs by sulforhodamine B assay; details: IGROV-1, 48 h, read-out: Activity
[32] = system: OVCAR-8; test: Growth inhibition of human OVCAR8 cells assessed as cell growth at 10^-5 M after 48 hrs by sulforhodamine B assay; details: OVCAR-8, 48 h, read-out: Activity
[33] = system: SF-295; test: Growth inhibition of human SF295 cells assessed as cell growth at 10^-8 M after 48 hrs by sulforhodamine B assay; details: SF-295, 48 h, read-out: Activity
[34] = system: HL-60(TB); test: Growth inhibition of human HL-60(TB) cells assessed as cell growth at 10^-7 M after 48 hrs by sulforhodamine B assay; details: HL-60, 48 h, read-out: Activity
[35] = system: 786-0; test: Growth inhibition of human 786-0 cells assessed as cell growth at 10^-7 M after 48 hrs by sulforhodamine B assay; details: 786-0, 48 h, read-out: Activity
[36] = system: UACC-62; test: Growth inhibition of human UACC62 cells assessed as cell growth at 10^-5 M after 48 hrs by sulforhodamine B assay; details: UACC-62, 48 h, read-out: Activity
[37] = system: SF-539; test: Growth inhibition of human SF539 cells assessed as cell growth at 10^-8 M after 48 hrs by sulforhodamine B assay; details: SF-539, 48 h, read-out: Activity

SMILES	growth at 0.01 µM [1] [%]	growth at 1 µM [2] [%]	growth at 100 µM [3] [%]	growth at 100 µM [4] [%]	growth at 0.01 µM [5] [%]	growth at 100 µM [6] [%]	growth at 1 µM [7] [%]	growth at 100 µM [8] [%]	growth at 10 µM [9] [%]	growth at 1 µM [10] [%]	growth at 10 µM [11] [%]	growth at 1 µM [12] [%]	growth at 100 µM [13] [%]	growth at 100 µM [14] [%]	growth at 1 µM [15] [%]	growth at 1 µM [16] [%]	growth at 1 µM [17] [%]	growth at 0.1 µM [18] [%]	growth at 1 µM [19] [%]	growth at 0.01 µM [20] [%]	also measured
COc1cc(-c2nn(-c3cccc(NC(=O)c4ccccc4)c3)cc2-c2ccncc2)ccc1Cl	101	50	36	-67	101	3	21	-54	4	47	13	19	16	34	31	40	63	80	58	89	growth at 0.01 µM [21]: 98%; growth at 0.01 µM [22]: 93%; growth at 0.01 µM [23]: 95%; growth at 1 µM [24]: 52%; growth at 0.1 µM [25]: 93%; growth at 0.01 µM [26]: 95%; growth at 0.1 µM [27]: 95%; growth at 0.1 µM [28]: 92%; growth at 1 µM [29]: 40%; growth at 0.1 µM [30]: 85%; growth at 100 µM [31]: 17%; growth at 10 µM [32]: 58%; growth at 0.01 µM [33]: 93%; growth at 0.1 µM [34]: 100%; growth at 0.1 µM [35]: 92%; growth at 10 µM [36]: 25%; growth at 0.01 µM [37]: 91%
COc1cc(-c2nn(-c3cccc(NC(=O)c4ccc(N5CCOCC5)c(C(F)(F)F)c4)c3)cc2-c2ccncc2)ccc1Cl	102	30	11	-34	108	-5	11	-75	-14	49	1	1	8	-1	33	25	47	-4	42	89	growth at 0.01 µM [21]: 95%; growth at 0.01 µM [22]: 99%; growth at 0.01 µM [23]: 97%; growth at 1 µM [24]: 21%; growth at 0.1 µM [25]: 93%; growth at 0.01 µM [26]: 95%; growth at 0.1 µM [27]: 80%; growth at 0.1 µM [28]: 93%; growth at 1 µM [29]: 27%; growth at 0.1 µM [30]: 100%; growth at 100 µM [31]: -15%; growth at 10 µM [32]: 3%; growth at 0.01 µM [33]: 89%; growth at 0.1 µM [34]: 73%; growth at 0.1 µM [35]: 100%; growth at 10 µM [36]: -4%; growth at 0.01 µM [37]: 93%
